Source: PubChem BioAssay (NCI)
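Step 1: Grow cells in 96-well plates. Step 2: Expose to compound for 48 hours at 5 concentrations. Step 3: Interpolate endpoints linearly; if unreached, use highest concentration. GI50 is the concentration that inhibits growth by half. Definition used: TGI = concentration required for complete inhibition of growth.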

What was measured:
Assay in all cases: NCI-60 cell line screen, 48 h
KM12 colon = system: KM12 colon
MOLT-4 leukemia = system: MOLT-4 leukemia
NCI-H226 lung = system: NCI-H226 lung
LOX IMVI melanoma = system: LOX IMVI melanoma
EKVX NSCLC = system: EKVX NSCLC
SK-MEL-28 melanoma = system: SK-MEL-28 melanoma
SNB-19 CNS = system: SNB-19 CNS
NCI-H23 lung = system: NCI-H23 lung
DU-145 prostate = system: DU-145 prostate
NCI/ADR-RES ovarian = system: NCI/ADR-RES ovarian

| Compound | TGI (KM12 colon) | TGI (MOLT-4 leukemia) | TGI (NCI-H226 lung) | TGI (LOX IMVI melanoma) | TGI (EKVX NSCLC) | TGI (SK-MEL-28 melanoma) | TGI (SNB-19 CNS) | TGI (NCI-H23 lung) | TGI (DU-145 prostate) | GI50 (KM12 colon) | GI50 (MOLT-4 leukemia) | GI50 (NCI-H226 lung) | GI50 (NCI/ADR-RES ovarian) | TGI (NCI/ADR-RES ovarian) | GI50 (LOX IMVI melanoma) | GI50 (DU-145 prostate) | GI50 (SK-MEL-28 melanoma) | GI50 (SNB-19 CNS) | GI50 (NCI-H23 lung) | GI50 (EKVX NSCLC) |
| --- | --- | --- | --- | --- | --- | --- | --- | --- | --- | --- | --- | --- | --- | --- | --- | --- | --- | --- | --- | --- |
| COC(=O)[C@]1(C)C(OC)=CC(=O)C2C1[C@H]1CCC[C@@H]21 (some centres undefined) | > 100 µM | > 100 µM | > 100 µM | > 100 µM | > 100 µM | > 100 µM | > 100 µM | > 100 µM | – | – | – | – | – | – | – | – | – | – | – | – |
| COc1c(Sc2ccccc2)cc(Sc2ccccc2)c2cccnc12 | > 100 µM | 48.1 µM | – | 42.7 µM | > 100 µM | > 100 µM | > 100 µM | 62.1 µM | – | – | – | – | – | – | – | – | – | – | – | – |
| O=C(O)Cc1ccccc1CCc1ccccc1Cl | > 100 µM | > 100 µM | > 100 µM | > 100 µM | > 100 µM | > 100 µM | > 100 µM | > 100 µM | – | – | – | – | – | – | – | – | – | – | – | – |
| C/C=C(/C)c1cnc(CC(C)C)c(=O)[nH]1 | > 100 µM | > 100 µM | – | > 100 µM | > 100 µM | > 100 µM | > 100 µM | > 100 µM | > 100 µM | – | – | – | – | – | – | – | – | – | – | – |
| CCOC(=O)Nc1nc2cc(OCC)ccc2s1 | > 100 µM | > 100 µM | > 100 µM | > 100 µM | – | > 100 µM | > 100 µM | > 100 µM | > 100 µM | 3.86 µM | 31.7 µM | > 100 µM | 6.02 µM | > 100 µM | > 47.4 µM | > 100 µM | > 100 µM | > 100 µM | > 100 µM | – |
| CC[C@H](Nc1nc(N)nc(C2CC2)c1C#N)c1nc2cccc(NCc3ccc(C(=O)NO)cc3)c2c(=O)n1-c1ccccc1 | 4.69 µM | 10.9 µM | 4.18 µM | – | 3.73 µM | 7.44 µM | 6.94 µM | 4.48 µM | 4.56 µM | 2.07 µM | 2.2 µM | 1.47 µM | 3.31 µM | 15.6 µM | – | 1.95 µM | 2.67 µM | 2.18 µM | 1.98 µM | 1.75 µM |
| CCN(CC)CCOc1c(OC)c(Br)cc2c(C)c(C(=O)OC)oc12 | 1.98 µM | 1.23 µM | 3.39 µM | 1.45 µM | 5.01 µM | – | 10.7 µM | 2.68 µM | – | 0.569 µM | 0.374 µM | 1.16 µM | 6.45 µM | 12.8 µM | 0.749 µM | – | – | 2.31 µM | 1.12 µM | 1.55 µM |
| O=c1cc(-c2ccccn2)[nH]c2cc(F)ccc12 | > 100 µM | > 100 µM | > 100 µM | > 100 µM | > 100 µM | > 100 µM | > 100 µM | > 100 µM | – | – | – | – | – | – | – | – | – | – | – | – |
| CS(=O)(=O)NNS(=O)(=O)c1ccc(Cl)cc1 | > 100 µM | > 100 µM | 96.3 µM | > 100 µM | > 100 µM | – | > 100 µM | > 100 µM | – | – | – | – | – | – | – | – | – | – | – | – |
| COC(=O)c1ccc(C(=O)OC)c2nc3cc(C)ccc3nc12 | > 100 µM | > 100 µM | > 100 µM | > 100 µM | > 100 µM | > 100 µM | > 100 µM | > 100 µM | – | – | – | – | – | – | – | – | – | – | – | – |
| CC(=O)c1cccc(-c2cccc(-c3ccn(CCN4CCOCC4)n3)c2)c1 | > 20 µM | > 20 µM | > 20 µM | > 20 µM | – | > 20 µM | – | > 20 µM | > 20 µM | > 20 µM | > 20 µM | > 20 µM | > 20 µM | > 20 µM | > 20 µM | > 20 µM | > 20 µM | – | > 20 µM | – |
| CCCCCCCCCCCCCC(=O)NCC(OCC)OCC | > 100 µM | – | > 100 µM | > 100 µM | > 100 µM | > 100 µM | > 100 µM | > 100 µM | – | – | – | – | – | – | – | – | – | – | – | – |
| COc1cc(C2c3cc4c(cc3[C@@H](OCCN(C)C)C3COC(=O)[C@H]23)OCO4)cc(OC)c1O (some centres undefined) | 2.75 µM | 0.0878 µM | 0.288 µM | 1.27 µM | 6.07 µM | 4.1 µM | > 22.3 µM | 1.18 µM | – | – | 0.0105 µM | – | – | – | – | – | – | – | – | – |
| COC(=O)C1Cc2c([nH]c3ccccc23)C(c2ccccc2O)N1Cc1ccccc1 (centres undefined) | > 31.6 µM | > 46.4 µM | > 46.4 µM | > 46.4 µM | > 31.6 µM | > 31.6 µM | > 31.6 µM | > 46.4 µM | – | – | – | – | – | – | – | – | – | – | – | – |
| CNCCNc1nc2ccccc2c2c(=O)c3cc(OC)ccc3sc12 | 3.48 µM | 3.53 µM | 3.61 µM | 2.88 µM | 3.16 µM | 3.34 µM | – | 3.05 µM | 3.16 µM | 1.8 µM | 1.77 µM | 1.75 µM | 1.68 µM | 3.48 µM | 1.51 µM | 1.73 µM | 1.84 µM | – | 1.62 µM | 1.69 µM |
| COC(=O)[C@H]1N[C@@H](C(=O)OC)C23CCC[C@H]2CC[C@]1(C(OC)OC)C3 | > 100 µM | > 100 µM | > 100 µM | > 100 µM | > 100 µM | > 100 µM | > 100 µM | > 100 µM | – | – | – | – | – | – | – | – | – | – | – | – |
| CC(/C=C/NNC1=NC(c2ccccc2)C(c2ccccc2)=NN1)Sc1ccccc1N (centres undefined) | 21.8 µM | 34 µM | 24.3 µM | 11.4 µM | 32.8 µM | 21.3 µM | 25.1 µM | 29.7 µM | – | – | – | – | – | – | – | – | – | – | – | – |
| O=C(N/N=C/c1ccc(Cl)cc1)c1[nH]c2ccc(Cl)cc2c1-c1ccccc1 | 0.568 µM | > 32 µM | > 44.5 µM | > 37.4 µM | > 100 µM | > 68.1 µM | > 56.1 µM | 35.5 µM | 0.367 µM | 0.181 µM | 0.108 µM | 0.29 µM | – | – | 0.12 µM | 0.104 µM | 2.77 µM | 0.504 µM | 0.328 µM | 0.317 µM |
| COc1ccccc1NC(=O)C1=C(C)NC(C)=C(C(=O)Nc2ccccc2OC)C1c1ccc(N(C)C)cc1 | 56.9 µM | 64.5 µM | 51.3 µM | 42.2 µM | > 100 µM | 58 µM | > 100 µM | 82.3 µM | – | – | – | – | – | – | – | – | – | – | – | – |
| NC(=O)c1csc(C2CCC(CO)O2)n1 (centres undefined) | > 100 µM | > 100 µM | > 100 µM | > 100 µM | > 100 µM | > 100 µM | > 100 µM | > 100 µM | – | – | – | – | – | – | – | – | – | – | – | – |
